Measurements as given in patent publication US20220089568A1 (Janssen Biotech, Inc., priority 2019, published 2022).

Assays:
[1] = biological target: T1, human DHODH (Homo sapiens, UniProt Q02127); assay: DHODH Enzymatic Assay; format: biochemical; settings: purified human DHODH; DCIP absorbance, end-point mode
T1 construct: purchased Proteros PR-0044
Protocol: To detect DHODH enzyme activities, dichloroindophenol (DCIP) is added as the final electron acceptor in the assay. DCIP can accept electrons from the reduced coenzyme Q generated in the assay, or from dihydroorotate (DHO) via FMN by binding presumably to the ubiquinone pocket. […] The assay buffer contained […], pH 7.5, 150 mM NaCl, 0.5 mM EDTA, and 0.1% Triton X-100 in MilliQ water. Substrate consisting of 20 mM DHO, 5 mM CoQ6, and 1 mM DCIP in assay buffer, initiates the reaction. […] Absorbance measurements were obtained using the BMG Phera Star plate-reading spectrophotomer. Purified human DHODH was purchased from Proteros (cat. No. PR-0044). Chemicals were purchased from Sigma-Aldrich, Teknova, and Avanti Polar Lipids. Liquid handling was performed using Labcyte Echo and Formulatrix Tempest.

[2] = system: MOLM-13 cells; assay: MOLM-13 Cellular Assay; format: cell-based; settings: Homo sapiens, 72 hours exposure, cell viability by CellTiter-Glo
Protocol: The day prior to assay set-up, cells were pelleted, resuspended in fresh media, counted, and cells were plated at 0.4×10^6 cell/mL in a T150 flask. […] Cells were exposed to different concentrations of test compounds at 37° C., 5% CO2 for 72 hours immediately after seeding.

T1 sequence (Q02127 whole entry): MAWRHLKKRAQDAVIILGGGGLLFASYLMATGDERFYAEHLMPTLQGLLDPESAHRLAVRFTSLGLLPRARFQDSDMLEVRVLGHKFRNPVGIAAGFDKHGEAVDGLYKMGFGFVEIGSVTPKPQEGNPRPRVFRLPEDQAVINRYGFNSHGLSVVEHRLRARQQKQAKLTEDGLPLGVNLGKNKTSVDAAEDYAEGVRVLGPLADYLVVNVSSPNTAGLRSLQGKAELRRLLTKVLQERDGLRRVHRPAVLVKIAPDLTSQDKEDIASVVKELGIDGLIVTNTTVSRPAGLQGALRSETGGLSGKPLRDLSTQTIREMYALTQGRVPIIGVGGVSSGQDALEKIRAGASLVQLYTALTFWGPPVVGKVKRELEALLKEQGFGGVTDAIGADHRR

Structure (SMILES)	EC50 [1] [nM]	EC50 [2] [nM]
CCn1c(CO)nn(-c2nc(OC3CC(F)(F)C3(F)F)c(C(=O)Nc3c(F)cccc3Cl)cc2F)c1=O (racemic) [Example 8, Racemic-N-(2-Chloro-6-fluorophenyl)-6-(4-ethyl-3-(hydroxymethyl)-5-oxo-4,5-dihydro-1H-1,2,4-triazol-1-yl)-5-fluoro-2-(2,2,3,3-tetrafluorocyclobutoxy)nicotinamide]	22.1	15.7
CCn1c(CO)nn(-c2nc(OC3CCOC3)c(C(=O)Nc3c(F)cccc3Cl)cc2F)c1=O (racemic) [Example 9, Racemic-N-(2-Chloro-6-fluorophenyl)-6-(4-ethyl-3-(hydroxymethyl)-5-oxo-4,5-dihydro-1H-1,2,4-triazol-1-yl)-5-fluoro-2-((tetrahydrofuran-3-yl)oxy)nicotinamide]	31.8	18.5
CCn1c(C(C)O)nn(-c2nc(O[C@@H](C)C(F)(F)F)c(C(=O)Nc3c(C)n[nH]c3C(F)(F)F)cc2F)c1=O (mixture of isomers) [Example 127, (Racemic)-6-[4-Ethyl-3-(1-hydroxyethyl)-5-oxo-1,2,4-triazol-1-yl]-5-fluoro-N-[3-methyl-5-(trifluoromethyl)-1H-pyrazol-4-yl]-2-(2,2,2-trifluoro-1-methyl-ethoxy)pyridine-3-carboxamide]	4.22	0.938
CCn1c(CO)nn(-c2nc(O[C@@H](C)C(F)(F)F)c(C(=O)Nc3c(F)cccc3Cl)cc2F)c1=O [Example 1, (S)-N-(2-Chloro-6-fluorophenyl)-6-(4-ethyl-3-(hydroxymethyl)-5-oxo-4,5-dihydro-1H-1,2,4-triazol-1-yl)-5-fluoro-2-((1,1,1-trifluoropropan-2-yl)oxy)nicotinamide]	0.237	0.156
CCn1c(CO)nn(-c2nc(O[C@@H](C)C(F)(F)F)c(C(=O)Nc3ccccc3F)cc2F)c1=O [Example 2, (S)-6-(4-Ethyl-3-(hydroxymethyl)-5-oxo-4,5-dihydro-1H-1,2,4-triazol-1-yl)-5-fluoro-N-(2-fluorophenyl)-2-((1,1,1-trifluoropropan-2-yl)oxy)nicotinamide]	6.1	5.2
CCn1c(CF)nn(-c2nc(O[C@@H](C)C(F)(F)F)c(C(=O)Nc3c(F)cccc3Cl)cc2F)c1=O [Example 3, (S)-N-(2-Chloro-6-fluorophenyl)-6-(4-ethyl-3-(fluoromethyl)-5-oxo-4,5-dihydro-1H-1,2,4-triazol-1-yl)-5-fluoro-2-((1,1,1-trifluoropropan-2-yl)oxy)nicotinamide]	0.245	0.037
CCn1c(CO)nn(-c2nc(O[C@@H](C)C(F)(F)F)c(C(=O)Nc3cccnc3Cl)cc2F)c1=O [Example 4, (S)-N-(2-Chloropyridin-3-yl)-6-(4-ethyl-3-(hydroxymethyl)-5-oxo-4,5-dihydro-1H-1,2,4-triazol-1-yl)-5-fluoro-2-((1,1,1-trifluoropropan-2-yl)oxy)nicotinamide]	2.8	6.5
CCn1c(CO)nn(-c2nc(O[C@@H](C)C(F)(F)F)c(C(=O)Nc3c(C)ccnc3Cl)cc2F)c1=O [Example 5, (S)-N-(2-Chloro-4-methylpyridin-3-yl)-6-(4-ethyl-3-(hydroxymethyl)-5-oxo-4,5-dihydro-1H-1,2,4-triazol-1-yl)-5-fluoro-2-((1,1,1-trifluoropropan-2-yl)oxy)nicotinamide]	1.2	2
CCn1c(CCl)nn(-c2nc(O[C@@H](C)C(F)(F)F)c(C(=O)Nc3c(F)cccc3Cl)cc2F)c1=O [Example 6, (S)-N-(2-Chloro-6-fluorophenyl)-6-(3-(chloromethyl)-4-ethyl-5-oxo-4,5-dihydro-1H-1,2,4-triazol-1-yl)-5-fluoro-2-((1,1,1-trifluoropropan-2-yl)oxy)nicotinamide]	0.369	1.47
CCn1c(CO)nn(-c2nc(OC(C)C)c(C(=O)Nc3c(F)cccc3Cl)cc2F)c1=O [Example 7, N-(2-Chloro-6-fluorophenyl)-6-(4-ethyl-3-(hydroxymethyl)-5-oxo-4,5-dihydro-1H-1,2,4-triazol-1-yl)-5-fluoro-2-isopropoxynicotinamide]	0.5	0.219
